# Measured values reported in patent US20100278787A1, “CARDIOMYOCYTE-LIKE CELL CLUSTERS DERIVED FROM HBS CELLS” (Cellartis AB, priority 2007, published 2010).
# How the values were obtained:
# [1] = test system: contracting clusters of cells; assay: Functional receptors: contractile activity of contracting areas after pharmacological agents (method of Norström et al. 2006); format: cell-based, human; conditions: agents administered to contracting areas; method and Table 1 of Norström et al. 2006
# CMLC clusters = assay: Transmembrane action potential (TAP) microelectrode recordings in beating CMLC; format: cell-based, human
# Protocol: Transmembrane action potentials (TAP) were recorded by using a microelectrode filled with 3 M KCl (resistance 10 to 20 MΩ) connected via an Ag/AgCl junction to a high impedance amplifier (Intracellular Electrometer IE-210, Warner Instrument Corporation). Sharp microelectrodes were prepared using a glass, and a micromanipulator was used to lower the electrode into the bath and enter the cluster. The same impalement was kept for as long as possible. […] Steady-state recordings of action potentials at spontaneous frequency or during electric stimulation of 1-4 Hz were made. All calculations were made on the average of 10 (consecutive) action potentials. The bath was continuously perfused with Tyrode's solution consisting of (in mmol/L) 130 NaCl, 4 KCl, 0.5 MgSO4.7H20, 1.8 NaH2PO4xH2O, 18 NaHCO3, 5.5 glucose, 1.8 CaCl2 and kept at 37° C.
# Electrical stimulation of the CMLC was done using field stimulation by means of a mobile electrode.
# Change in APD was calculated and used to determine prolongation and assess triangularization.
# To investigate the role of the funny current (If) in spontaneously contracting CMLC, 10 μM zatebradine was administered.
# hBS cells (SA002) = assay: Yield of beating CMLC from differentiating hBS cells, counted visually; format: cell-based, human; conditions: for Yield of beating CMLC compared to control cultures not receiving additional factors: 5 μM pre-plating in addition to Activin A 10 ng/ml and bFGF 12 ng/ml, day 7 after plating
# Protocol: Spontaneously contracting cells were derived from undifferentiated hBS cells cultured on MEF cells (Heins et al 2004 Stem Cells). The cell lines used for this experiment could be the hBS cell line SA002, SA121, SA001, SA002.5, SA461 (Cellartis AB, Goteborg, Sweden, http://www.cellartis.com) and they can be propagated as described Heins et al. 2004. These cell lines are listed in the NIH stem cell registry and the UK Stem Cell bank. The hBS cells were detached from the feeder layer by incubation with collagenase IV (200 U/ml), for 10-15 minutes at 37° C. The cell suspension was transferred to a 15 ml tube, and after the cells had sedimented, the supernatant was removed. The colonies were resuspended in Knock Out DMEM supplemented with 20% FBS, 1% penicillin-streptomycin, 1% Glutamax, 0.5 mmol/l β-mercaptoethanol and 1% non-essential amino acids (all from Invitrogen, Carlsbad, Calif.) and dissociated mechanically into small aggregates of undifferentiated cells (0.2-0.4 mm) using a pipette. This cell suspension was distributed (200 μl/well) into a 96-well v-bottom plate (Corning Incorporated, NY, USA) at a concentration of approximately 4-6 colonies per well and centrifuged for 5 min at 400×g. The plate was then incubated at 37° C. for 3-8 days. The 3D structures that formed were then transferred to gelatine coated dishes containing culture medium (same as above). After a couple of days (normally 1-4) of culture, spontaneously contracting areas with cluster of contracting cells (CMLC) occurred and could be visually identified using a light microscope. Medium was changed every second to third day. New spontaneously beating areas continued to appear for up to 20 days post-plating. The clusters are isolated by mechanical dissection under visual inspection using a light microscope from the 3D-structures and subjected to further characterization. […] These were then manually isolated from the surrounding cells and plated onto laminin coated glass. After three days in culture, the clusters were fixed and stained for nuclei and the protein cardiac troponin 1, which is known to be specific for cardiac tissue. These clusters were then examined with confocal microscopy.
# CMLC were derived from undifferentiated hBS cells (cell line SA002, LOTAL002, passage 21, 22, 44 and 51) essentially as described in Example 1. […]
# The number of contracting CMLC was visually determined at day 6 or 7 after plating of formed 3D structures. […] The effect of the treatment on beating area characteristics was determined in terms of distribution in beating frequency, length, width, calculated area and structure in two experiments; one using plating medium with 20% FBS and one with plating medium containing 2% FBS. […]
# [2] = test system: spontaneously beating CMLC; assay: Visually registered contraction rate of spontaneously beating CMLC; format: cell-based, human; conditions: 5 μM
# Protocol: FIG. 28. The effect of Zatebradine on the beating frequency of contracting CMLC derived from hBS cells. […] The change in beating frequency was calculated by visually registering the contraction rate before and after Zatebradine administration. Values are expressed as beats per minute±SEM, n=32, ***=p<0.001. Statistical significance was calculated using paired t-test. […] The mRNA expression of HCN4 and Troponin T2 was measured using real-time RT quantitative PCR and related to the expression of the endogenous control CREBBP. Values are expressed as relative gene expression as compared to a reference sample set to 100% (n=32). Statistical analysis was performed using linear regression analysis.
# CMLC were derived from undifferentiated hBS cells essentially as described in Example 1 using cell line SA002. Zatebradine is a substance known to block so called funny channels, e.i. hyperpolarization-activated, cyclic nucleotide-gated (HCN) channels 1-4, which are involved in the regulation of cardiomyocyte contraction and cardiac rate. In order to investigate the effect of Zatebradine on CMLC derived from hBS cells and to correlate this effect to age and gene expression, Zatebradine was administered at a concentration of 5 μM to 32 spontaneously beating clusters of different ages. […] Gene expression was quantified using real-time RT quantitative PCR. […]
compound,measurement,setting,value
CNCC(O)c1ccc(O)c(O)c1 (centres unmarked) [Adrenaline],Effect on contractile activity / contraction frequency,[1],stimulatory effect is registered within minutes
COc1ccc(CCN2CCC(Nc3nc4ccccc4n3Cc3ccc(F)cc3)CC2)cc1 [Astemizol],Delayed repolarisation of the cardiac field potentials,"hERG channel in CMLC; cumulative 0, 100 pM, 1 nM, 10 nM, 100 nM, 1000 nM",selective block and sustained prolongation of the repolarizing component at low nanomolar concentrations
same,Delayed repolarization of the cardiac field potential,"hERG channel in CMLC; hES-CMC cluster on MEA, cumulative 0, 1 nM, 10 nM, 100 nM, 1 μM, 10 μM, FIG. 30",selective block and sustained prolongation of the repolarizing component at nanomolar concentrations
COc1cc(N)c(Cl)cc1C(=O)NC1CCN(CCCOc2ccc(F)cc2)CC1OC (centres unmarked) [Cisapride],Field action potential duration (indicator of QT prolongation),"hERG channel in CMLC; increasing drug concentrations, FIGS. 5c and 5d",dose dependent prolongation of the action potential
Cc1cccc(CCN2CCC(C(=O)c3ccc(NS(C)(=O)=O)cc3)CC2)n1 [E-4031],Action potential prolongation,"CMLC clusters; 0.5-1 μM E-4031, all CMLC phenotypes",concentration dependent action potential prolongation in all CMLC phenotypes
same,Average change in percent of APD90,"CMLC clusters; atrial-like CMLC, 0.5 μM E-4031, spontaneous f",27.27 ± 7.61 (7) %
same,Average change in percent of APD90,"CMLC clusters; atrial-like CMLC, 1 μM E-4031, spontaneous f",70.08 ± 25.91 (2) %
same,Average change in percent of APD90,"CMLC clusters; nodal-like CMLC, 0.5 μM E-4031, spontaneous f",43.16 ± 21.00 (4) %
same,Average change in percent of APD90,"CMLC clusters; ventricle-like CMLC, 0.5 μM E-4031, 1 Hz",34.89 ± 9.83 (4) %
same,Average change in percent of APD90,"CMLC clusters; ventricle-like CMLC, 0.5 μM E-4031, 2 Hz",27.92 ± 9.23 (2) %
same,Average change in percent of APD90,"CMLC clusters; ventricle-like CMLC, 0.5 μM E-4031, spontaneous f",16.67 ± 10.64 (5) %
same,Average change in percent of APD90,"CMLC clusters; ventricle-like CMLC, 1 μM E-4031, 1 Hz",59.33 ± 31.28 (2) %
same,Average change in percent of APD90,"CMLC clusters; ventricle-like CMLC, 1 μM E-4031, 2 Hz",38.14 ± 36.85 (3) %
NC[C@H](O)c1ccc(O)c(O)c1 [Noradrenaline],Effect on contractile activity / contraction frequency,[1],stimulates contractile activity normally in a concentration-response manner
CNC[C@H](O)c1cccc(O)c1 [Phenylephrine],Effect on contractile activity / contraction frequency,[1],stimulated in a dose-dependent manner
Cn1cc(C2=C(c3ccc(Cl)cc3Cl)C(=O)NC2=O)c2ccccc21 [SB 216763],Yield of beating CMLC compared to control cultures not receiving additional factors,hBS cells (SA002),~3 times
Fc1ccc(-c2nc3n(c2-c2ccncc2)CCS3)cc1 [SKF-86002],Yield of beating CMLC compared to control cultures not receiving additional factors,hBS cells (SA002),~3 times
COc1ccc(CCN(C)CCCN2CCc3cc(OC)c(OC)cc3CC2=O)cc1OC [Zatebradine],Effect on action potential duration,"CMLC clusters; 10 μM Zatebradine, FIG. 21",increased duration
same,Effect on beating frequency,"CMLC clusters; 10 μM Zatebradine, FIG. 21",slowed beating frequency
same,Beating of some clusters,[2],completely blocked
same,"Decrease of the beating frequency of CMLC, on average",[2]; 32 spontaneously beating clusters of different ages,about 50%
CC(C)NCC(O)COc1ccc(CC(N)=O)cc1 (centres unmarked) [atenolol],Effect on contractile activity / contraction frequency,[1],stimulatory effect is reduced within minutes
CC(CCc1ccccc1)NCC(O)c1ccc(O)c(C(N)=O)c1 (centres unmarked) [labetolol],Effect on contractile activity / contraction frequency,[1],reduction in the stimulation of contraction frequency exerted by adrenaline
CC(COc1ccccc1)N(CCCl)Cc1ccccc1 (centres unmarked) [phenoxybenzamine],Effect on contractile activity / contraction frequency,[1],reduce the contraction frequency
LIF: protein growth factor supplemented at 1000 U/ml post-plating,Yield of beating CMLC,"hBS cells (SA002); Activin A and bFGF pre-plating, LIF 1000 U/ml for 4 days post-plating, counted day 7 and day 14",further increased the generation of beating CMLC
same,Improvement of yield compared to controls that only receive medium,"hBS cells (SA002); medium containing Activin A and/or bFGF supplemented with LIF post-plating, FIG. 14",~2 fold
